The values below come from patent US5861476A, “Peptides and compounds that bind to the IL-1 receptor” (Affymax Technologies N.V., priority 1995, dated 1999).

pIC50: −log10 of the molar value. Where a SMILES comes first, the peptide text is derived from it. Where no end group is shown, it is not given here. [ ]: non-standard residue; d: D form. Aze = O=C(O)[C@@H]1CCN1 Bounds are passed on as bounds.

One assay concerns the target T1, IL-1RtI (Homo sapiens, UniProt P14778).
T1 construct: made in house; host or cells: recombinant host cells (one form soluble from baculovirus transformed host cells; another PIG-tailed and cleaved from the cell surface)
T1 sequence (P14778 18-336): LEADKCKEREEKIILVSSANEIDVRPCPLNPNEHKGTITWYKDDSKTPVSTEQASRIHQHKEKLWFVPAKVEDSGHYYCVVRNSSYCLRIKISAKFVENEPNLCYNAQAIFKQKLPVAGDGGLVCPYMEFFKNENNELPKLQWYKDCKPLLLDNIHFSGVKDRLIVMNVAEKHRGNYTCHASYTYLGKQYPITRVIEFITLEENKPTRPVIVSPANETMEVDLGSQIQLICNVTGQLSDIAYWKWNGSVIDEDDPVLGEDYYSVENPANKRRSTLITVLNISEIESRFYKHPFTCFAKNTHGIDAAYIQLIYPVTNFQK
Description: Inhibition of 125I-IL-1α binding to IL-1RtI (Example 3). The following applies: inhibition of 125I-IL-1α binding to IL-1RtI; soluble peptide unless marked *. Put shortly: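 Competition with 90 pM 125I-IL-1α was run in duplicate for 2 h at 4 °C in HEPES-buffered RPMI with 1% BSA, pH 7.2-7.3, against either antibody-captured truncated receptor or cells with full-length IL-1RtI. Gamma counting of NaOH-detached material gave approximate IC50; high-affinity peptides used 24-well format.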

In assay [1] the target is T2, IL-1 induced down-regulation of the epidermal growth factor (EGF) receptor in normal human dermal fibroblasts (NHDF) (Homo sapiens, UniProt P14778).
T2 sequence (P14778 18-569): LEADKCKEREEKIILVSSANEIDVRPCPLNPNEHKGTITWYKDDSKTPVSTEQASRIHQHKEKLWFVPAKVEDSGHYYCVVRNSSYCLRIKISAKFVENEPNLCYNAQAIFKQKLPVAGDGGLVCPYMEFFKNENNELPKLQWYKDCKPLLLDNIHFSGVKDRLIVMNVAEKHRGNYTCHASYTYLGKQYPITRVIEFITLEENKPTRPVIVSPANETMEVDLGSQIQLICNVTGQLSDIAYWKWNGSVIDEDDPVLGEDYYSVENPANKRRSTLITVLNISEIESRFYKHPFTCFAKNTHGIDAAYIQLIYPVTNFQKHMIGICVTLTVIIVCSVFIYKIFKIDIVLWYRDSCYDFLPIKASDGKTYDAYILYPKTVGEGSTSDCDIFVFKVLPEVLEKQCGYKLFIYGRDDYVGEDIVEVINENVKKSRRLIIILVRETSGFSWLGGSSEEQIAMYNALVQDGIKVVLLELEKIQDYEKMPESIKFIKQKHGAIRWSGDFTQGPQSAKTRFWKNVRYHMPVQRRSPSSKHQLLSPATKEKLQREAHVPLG
Description: Epidermal Growth Factor Receptor Down Regulation Assay. The following applies: 37° C., in the presence of IL-1α, 125I-labeled EGF binding, read-out: IC50 (approximate concentration which blocked 50% of the IL-1 induced down regulation of the EGF receptor). It is filed as cell-based. The text has this: The protocol set forth in Bird and Saklatvala (1989) J. Immunol. […] This assay examines the effect of the compounds of the invention on the IL-1 induced down-regulation of the epidermal growth factor (EGF) receptor as measured by the binding of ^125 I-labeled EGF to its receptor in normal human dermal fibroblasts (NHDF). […] The table below lists the approximate concentration of representative peptides of the invention which blocked 50% of the IL-1 induced down regulation of the EGF receptor. IC50 values are indicated symbolically by the symbols "-", "+", and "++". […] Those peptides which give IC50 values of less than or equal to 100 μM are given a "+", while those which give IC50 values of 500 nM or less are indicated with a "++". Those peptides which give IC50 values at or near the cutoff point for a particular symbol are indicated with a hybrid, e.g. "±". Those peptides for which IC50 values were not determined are listed as "N.D".

The target in assay [2] is T3, IL-1 induced E-selectin in HUVEC cells (Homo sapiens, UniProt P14778).
T3 sequence (P14778 18-569): T2 sequence (P14778 18-569)
Description: Peptide Effects on IL-1 Induced E-Selectin (HUVEC Cells). Format: cell-based. The following applies: 120 pM IL-1α, read-out: IC50 (concentration required to inhibit 50% of IL-1 induced E-selectin expression). As for the experimental part: The compounds of the present invention were assayed for their ability to inhibit the expression of IL-1 induced E-selectin in HUVEC cells (human umbilical vein endothelial cells). HUVEC cells are grown to confluency in the wells of a 24-well microtiter plate. The compounds were serially diluted in DMEM/F12+0.1% BSA ("SFM"with 120 pM IL-1α. The cells were washed and then incubated with IL-1α and the compound to be tested for 15 minutes. The cells were again washed and incubated in SFM for 4 hours. The cells were washed and incubated with anti-selectin antibody for 30 minutes. Following antibody incubation, the cells were incubated with ^125 I Protein A and washed. The amount of ^125 I bound to the cells was then determined. The concentration of compounds required to inhibit 50% of IL-1 induced E-selectin expression is shown below.

For the compound `CC(=O)N[C@@H](Cc1ccccc1)C(=O)N[C@@H](CCC(=O)O)C(=O)N[C@@H](Cc1c[nH]c2ccccc12)C(=O)N[C@H](C(=O)N1CCC[C@H]1C(=O)NCC(=O)N[C@@H](Cc1c[nH]c2ccccc12)C(=O)N[C@@H](Cc1ccc(O)cc1)C(=O)N[C@@H](CCC(N)=O)C(=O)N1CC[C@H]1C(=O)N[C@@H](Cc1ccc(O)cc1)C(N)=O)[C@@H](C)O` [AcFEWTPGWYQJY--NH2] (Ac-FEWTPGWYQ[Aze]Y-NH2), the pIC50 on IL-1RtI is no less than 6.30; in assay [1], 6.30; in assay [2], no less than 6.30.

As for `CC(=O)N[C@@H](Cc1ccccc1)C(=O)N[C@@H](CCC(=O)O)C(=O)N[C@@H](Cc1c[nH]c2ccccc12)C(=O)N[C@H](C(=O)N1CCC[C@H]1C(=O)N[C@H](C)C(=O)N[C@@H](Cc1ccc(O)cc1)C(=O)N[C@@H](Cc1ccc(O)cc1)C(=O)N[C@@H](CCC(N)=O)C(=O)N1CC[C@H]1C(=O)N[C@@H](Cc1ccc(O)cc1)C(N)=O)[C@@H](C)O` [AcFEWTPaYYQJY--NH2] (Ac-FEWTP[dA]YYQ[Aze]Y-NH2), the pIC50 is no less than 4.00 in assay [1] and no less than 6.30 in assay [2].

`CC(C)C[C@H](NC(=O)[C@@H]1CCCN1C(=O)[C@H](CC(C)C)NC(=O)[C@H](C)NC(=O)[C@H](Cc1ccc(O)cc1)NC(=O)[C@@H]1CCN1C(=O)[C@H](CCC(N)=O)NC(=O)[C@H](Cc1ccc(O)cc1)NC(=O)[C@H](Cc1ccc(O)cc1)NC(=O)CNC(=O)[C@@H]1CCCN1C(=O)[C@@H](NC(=O)[C@H](Cc1c[nH]c2ccccc12)NC(=O)[C@H](CCC(=O)O)NC(=O)[C@@H](N)Cc1ccccc1)[C@@H](C)O)C(=O)O` [FEWTPGYYQJYALPL] (H-FEWTPGYYQ[Aze]YALPL-OH): the pIC50 in assay [1] and in assay [2] was no less than 6.30 in each case.

Take TANVSSFEWTPGYWQPYALPL: the pIC50 (on IL-1RtI; in assay [1]; in assay [2]) was no less than 6.30 in each case.

As to `CC(=O)N[C@@H](Cc1ccccc1)C(=O)N[C@@H](CCC(=O)O)C(=O)N[C@@H](Cc1c[nH]c2ccccc12)C(=O)N[C@H](C(=O)N1CCC[C@H]1C(=O)NCC(=O)N[C@@H](Cc1ccc(O)cc1)C(=O)N[C@@H](Cc1c[nH]c2ccccc12)C(=O)N[C@@H](CCC(N)=O)C(=O)N1CC[C@H]1C(=O)N[C@@H](Cc1ccc(O)cc1)C(N)=O)[C@@H](C)O` [AcFEWTPGYWQJY--NH2] (Ac-FEWTPGYWQ[Aze]Y-NH2), the pIC50 at IL-1RtI is no less than 6.30; in assay [1], no less than 4.00; in assay [2] it was no less than 6.30.

In the case of `CC(=O)N[C@@H](Cc1ccccc1)C(=O)N[C@@H](CCC(=O)O)C(=O)N[C@@H](Cc1c[nH]c2ccccc12)C(=O)N[C@H](C(=O)N1CCC[C@H]1C(=O)N[C@H](C)C(=O)N[C@@H](Cc1ccc(O)cc1)C(=O)N[C@@H](Cc1c[nH]c2ccccc12)C(=O)N[C@@H](CCC(N)=O)C(=O)N1CC[C@H]1C(=O)N[C@@H](Cc1ccc(O)cc1)C(N)=O)[C@@H](C)O` [AcFEWTPaYWQJY--NH2] (Ac-FEWTP[dA]YWQ[Aze]Y-NH2), the pIC50 in assay [1] was no less than 4.00; in assay [2] it was no less than 6.30.

With `CC(C)C[C@H](NC(=O)[C@@H]1CCCN1C(=O)[C@H](CC(C)C)NC(=O)[C@H](C)NC(=O)[C@H](Cc1ccc(O)cc1)NC(=O)[C@@H]1CCN1C(=O)[C@H](CCC(N)=O)NC(=O)[C@H](Cc1c[nH]c2ccccc12)NC(=O)[C@H](Cc1ccc(O)cc1)NC(=O)CNC(=O)[C@@H]1CCCN1C(=O)[C@@H](NC(=O)[C@H](Cc1c[nH]c2ccccc12)NC(=O)[C@H](CCC(=O)O)NC(=O)[C@@H](N)Cc1ccccc1)[C@@H](C)O)C(=O)O` [FEWTPGYWQJYALPL] (H-FEWTPGYWQ[Aze]YALPL-OH), the pIC50 in assay [1] and in assay [2] was no less than 6.30 throughout.

Consider `CC(=O)N[C@@H](Cc1ccccc1)C(=O)N[C@@H](CCC(=O)O)C(=O)N[C@@H](Cc1c[nH]c2ccccc12)C(=O)N[C@H](C(=O)N1CCC[C@H]1C(=O)NCC(=O)N[C@@H](Cc1ccc(O)cc1)C(=O)N[C@@H](Cc1ccc(O)cc1)C(=O)N[C@@H](CCC(N)=O)C(=O)N1CC[C@H]1C(=O)N[C@@H](Cc1ccc(O)cc1)C(N)=O)[C@@H](C)O` [AcFEWTPGYYQJY--NH2] (Ac-FEWTPGYYQ[Aze]Y-NH2), for which the pIC50 was 6.30 in assay [1] and no less than 6.30 in assay [2].
